According to PubChem BioAssay (NCI):
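48-hour exposure; five concentrations; linearly interpolated endpoints. TGI is the concentration that stops growth completely.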

How the values were obtained:
Test in all cases: DTP human tumour cell line panel, 48 h
[1] = system: OVCAR-8 ovarian
[2] = system: HCC-2998 colon
[3] = system: DMS 114 small cell lung
[4] = system: SF-295 CNS
[5] = system: CCRF-CEM leukemia
[6] = system: LXFL 529 NSCLC
[7] = system: RXF 393 renal
[8] = system: SK-MEL-2 melanoma
[9] = system: HCT-116 colon
[10] = system: HOP-18 NSCLC
[11] = system: KM12 colon
[12] = system: XF 498 CNS
[13] = system: OVCAR-5 ovarian
[14] = system: 786-0 renal
[15] = system: UACC-62 melanoma
[16] = system: U251 CNS
[17] = system: RPMI-8226 leukemia
[18] = system: CAKI-1 renal
[19] = system: NCI-H226 lung
[20] = system: M14 melanoma
[21] = system: NCI-H23 lung
[22] = system: UO-31 renal
[23] = system: EKVX NSCLC
[24] = system: MALME-3M melanoma
[25] = system: SNB-75 CNS
[26] = system: SK-MEL-5 melanoma
[27] = system: SK-MEL-28 melanoma
[28] = system: HL-60(TB) leukemia
[29] = system: HOP-62 NSCLC
[30] = system: SF-268 CNS
[31] = system: SNB-19 CNS
[32] = system: SF-539 CNS
[33] = system: OVCAR-3 ovarian
[34] = system: TK-10 renal
[35] = system: LOX IMVI melanoma
[36] = system: HCT-15 colon
[37] = system: KM20L2 colon
[38] = system: COLO 205 colon
[39] = system: SK-OV-3 ovarian
[40] = system: A498 renal
[41] = system: K-562 leukemia
[42] = system: NCI-H522 lung
[43] = system: SW-620 colon
[44] = system: UACC-257 melanoma
[45] = system: NCI-H460 lung
[46] = system: SN12C renal
[47] = system: SR leukemia
[48] = system: DMS 273 small cell lung
[49] = system: IGROV1 ovarian
[50] = system: MOLT-4 leukemia
[51] = system: HT29 colon
[52] = system: A549 NSCLC
[53] = system: HOP-92 NSCLC
[54] = system: ACHN renal
[55] = system: DLD-1 colon
[56] = system: M19-MEL melanoma

Measured: TGI

CNS(=O)(=O)NNS(=O)(=O)c1ccccc1
> 100 µM: all assays above
